Reference: paper PMC10288505, “Photoswitchable Calixarene Activators for Controlled Peptide Transport across Lipid Membranes” (Journal of the American Chemical Society, 2023)

How the values were obtained:
HeLa cells [1] = assay: Confocal fluorescence microscopy of TAMRA-R8 cellular uptake; type: cell-based; conditions: TAMRA-R8 3 μM with activator (10, 50, 100, 250 nM), 25 min at 37 °C
Experimental: (§1) Success in artificial vesicle assays encouraged us to conduct transport experiments of fluorescently labeled peptides in living cells (Figure 5). We first employed confocal fluorescence microscopy to evaluate counterion activator 2 for the intracellular transport of a carboxytetramethylrhodamine-labeled R8 peptide (TAMRA-R8) into the cytosol of HeLa cells. Cationic peptides usually remain trapped inside the endosomes when incubated with cells at low μM concentrations.[32],[44] […] The cytometry experiments validated the E isomer selective transport and indicated a four-fold intracellular delivery enhancement (Figure 5C and Figure S52). […]
Figure 5 (A) Schematic representation of oligoarginine intracellular delivery by both isomers of 2. (B) Confocal fluorescence microscopy images of the cellular uptake of 3 μM TAMRA-R8 (in red) facilitated by E-2/Z-2. […] (C) Fluorescence intensity of HeLa cells incubated with 3 μM TAMRA-R8 in the presence of different E-2/Z-2 concentrations, measured by flow cytometry. […]
(§2) Confocal microscopy assays. […] Fluorescence of Hoechst was excited with the 405 nm laser and the emission was detected at 450/50 nm; for the TAMRA fluorescence, an excitation of 561 nm was used while the emission was detected at 620/60 nm. […]
(§3) Flow cytometry assays. […] TAMRA fluorescence was excited at 532 nm (green laser) and […]

HeLa cells [2] = assay: Flow cytometry quantification of TAMRA-R8 uptake; type: cell-based; conditions: TAMRA-R8 3 μM, activator 10-250 nM, 25 min, flow cytometry mean fluorescence intensity, quadruplicate
Experimental: as §1, §2, §3
measured on a Guava easyCyte BG HT collecting the emission at 583/26 nm (Yellow-G channel), using InCyte v3.2 (GuavaSoft, Millipore). Cells with typical FSC and SSC parameters were selected and the mean fluorescence intensity was calculated for each sample. Each condition was measured in quadruplicate. […]

## CCCCc1ccc(/N=N/c2ccc(OCCCOc3c4cc(S(=O)(=O)[O-])cc3Cc3cc(S(=O)(=O)[O-])cc(c3O)Cc3cc(S(=O)(=O)[O-])cc(c3O)Cc3cc(S(=O)(=O)[O-])cc(c3O)C4)cc2)cc1.[Li+].[Li+].[Li+].[Li+] [E-2]
HeLa cells [1]
  Intracellular TAMRA-R8 fluorescence in the presence of activator: strong diffuse fluorescence signal in the cytosol, nucleus, and nucleolus
HeLa cells [2]
  Intracellular delivery enhancement of TAMRA-R8, E isomer relative to Z isomer: four-fold
